Consider five compounds from publication PMC11413854, “Reversible Control of Native GluN2B-Containing NMDA Receptors with Visible Light” (ACS Chemical Neuroscience, 2024).

Assay [1] concerns the target GluN1/GluN2B NMDARs. The following applies: cited from earlier work; for Ki or IC50: Sup. Fig. 2G, Ki or IC50 not specified.
Assay [2] concerns the target T1, GluN1/GluN2B NMDA receptors (UniProt P35439+Q01097).
T1 construct: expressed in transfected cells; host or cells: Xenopus laevis oocytes (nuclear cDNA injection)
Put plainly: TEVC electrophysiology on Xenopus oocytes expressing wt GluN1/GluN2B NMDARs. In kind it is cell-based, rat GluN1, mouse GluN2B. The following applies: theoretical dose-response curve of a pure cis population calculated from 365 and 350 nm PSS. An excerpt:
The activity of OptoNAM-3 was functionally monitored by electrophysiology on Xenopus oocytes (see Methods). To assess the light-dependent effect, we tested the activities of the dark PSS (mostly trans) and the UV PSS (mostly cis, see above) separately. For each concentration, we prepared a solution divided into two samples: one in which the compound was kept in the dark for the duration of the experiment (dark PSS state); and the other that was preilluminated with either 350 or 365 nm light (350 or 365 nm PSS) and then kept away from the light for the duration of the experiment in order to avoid photoisomerization of the compounds by ambient light (see Methods). […] We generated dose–response curves of OptoNAM-3 dark and UV PSS on wild-type (wt) GluN1/GluN2B NMDA receptors (Figure 3A) in the presence of saturating concentrations of agonists (100 μM glutamate and glycine).
We used cDNA coding for rat GluN1–1a (named GluN1 herein) (GenBank: U08261.1), rat GluN2A (GenBank: D13211.1), mouse GluN2B (GenBank: D10651.2), rat GluA1 flop (GenBank: M36418.2), and rat Myc-GluA2(Q)-flip (GenBank: AF164344.1) cloned into pcDNA3-based expression plasmids. GluK2 (GenBank: Z11548.1) corresponds to the fully RNA-edited version.[80] The GluN2B-ΔNTD construct is from ref[45] and GluN2B–N615K is from ref[81]. Single mutants GluN2B-Q110G and GluN1-L135H were from ref[19]. The GluA2 cDNA contains a Myc tag ([…]) fused between the signal peptide and the N-terminus sequences, and the GluA2 subunit is […] for its Q/R/N site (GluA2(Q)) to allow permeation of homomeric GluA2 receptors.[2] cDNAs coding for rat GluN2C (GenBank: M91563.1) and GluN2D subunits (GenBank: L31611.1) were in prK5 plasmids.
Oocytes from Xenopus laevis were used for heterologous expression of recombinant NMDA receptors studied using a two-electrode voltage clamp (TEVC). Female Xenopus laevis were housed and ovary bags harvested according to the European Union guidelines (husbandry authorizations #C75–05–31 and #D75–05–31; project authorizations #05137.02; and Apafis #28867–2020121814485893). Fragments of ovary bags were also purchased from the “Centre de Ressources Biologiques Xenopes” (now TEFOR, Paris Saclay, France) and from the European Xenopus Resource Center (EXRC, Portsmouth, UK). Xenopus laevis oocytes were harvested and prepared as previously described in ref[82].
Expression of recombinant NMDA receptors was obtained by oocyte nuclear coinjection of 37 nL of a mixture of cDNAs (at 30 ng/μL) coding for GluN1–1a and various GluN2 subunits (ratio 1:1). The protocol in ref[43] was followed for the expression of GluN1/GluN2A/GluN2B triheteromers. The oocytes were transferred in 96-well plates filled with Barth solution (in mM: 88 NaCl, 1 KCl, 0.33 Ca(NO3)2, 0.41 CaCl2, 0.82 MgSO4, 2.4 NaHCO3, and 7.5 HEPES, pH adjusted to 7.3 with NaOH), supplemented with gentamicin ([…]) and 50 μM APV, a selective NMDA receptor antagonist. Plates were then stored at 18 °C for 24 h for GluN1/GluN2A expression and for 48––72 h for the expression of GluN1/Glu2B, GluN1/GluN2A/GluN2B, and mutants.
TEVC recordings were performed 1–3 days following injection. TEVC recordings were performed using an Oocyte Clamp amplifier OC-725 (Warner Instruments) and computer-controlled via a 1440A Digidata (Molecular Devices). Currents were sampled at 100 Hz and low-pass-filtered at 20 Hz using an 8-pole Bessel filter (900 Series, Frequency Devices Inc.).

Assay [3] relates to cultured cortical neurons at DIV 14. Briefly: NMDA excitotoxicity test, neuronal survival by MTT. Type of assay: cell-based, mouse. The following applies: for neuronal survival: 5 µM inhibitor + 100 µM NMDA + 10 µM glycine; for % of survival, Mean: compound 5µM with NMDA 100µM, MTT A(540 nm) normalized to control (100) and NMDA alone (0). An excerpt:
We first investigated whether OptoNAM-3 could be used in the context of a patho-physiological process related to GluN1/GluN2B receptors. Overactivation of NMDARs induced by tonic exposure to glutamate or NMDA is well-known to trigger neuronal death.[6] GluN1/GluN2B receptors are thought to be the major player of this neurotoxicity, and GluN1/GluN2B antagonists have proven to be potent neuroprotectants in vitro and in vivo.[5],[15] To test the neuroprotective activity of OptoNAM-3 and its photodependence of action, we performed a protocol of excitotoxicity based on exposure to NMDA (100 μM) of cultured cortical neurons at DIV 14,[15] in the presence of OptoNAM-3. […] OptoNAM-3 in the dark, at a concentration of 5 μM, induced, like ifenprodil, an ∼50% increase in cell survival (Figure S4). […] OptoNAM-3 is therefore able to promote cell survival in neuron cultures in a photodependent manner.
Mice were housed in the IBENS rodent central facility duly accredited by the French Ministry of Agriculture. All experiments were performed in compliance with French and European regulations on care and protection of laboratory animals (EU Directive 2010/63, French Law 2013–118, February 6, 2013), and were approved by local ethics committees and by the French Ministry of Research and Innovation (authorization numbers #05137.02, APAFIS #28867-2020121814485893). Dissociated cultures of cortical neurons were prepared from mouse embryos at E18 as described previously.[84] After removing meninges, cortices were placed in ice-cold HBSS solution. Cell dissociation was performed individually for cortices of each embryo. Cortices were incubated in 2.5% trypsin at 37 °C for 7 min, rinsed three times with 37 °C phosphate buffer saline, and finally suspended in plating medium (Neurobasal Medium, supplemented with 0.5 mM L-glutamine, 1% B27 supplement, and penicillin/streptomycin). The neurons were further dissociated by trituration, and cells were plated on poly-D-lysine coated coverslips in 24-well culture dishes at a density of 3 × 10^5 cells per well for the excitotoxicity test and that of 1 × 10^5 cells per well for patch clamp experiments. Cultures were incubated at 37 °C in a humidified atmosphere of 5% CO2. Cells were fed by changing 1/2 medium to fresh Neurobasal medium every 4 days. For the excitotoxicity experiments, after 5 days in vitro, growth of non-neuronal cells was halted by a 24 h exposure to FDX ([…] 5-fluoro-2′-deoxyuridine). The cultures were used for experiments after 6 to 14 days in vitro (DIV6–8 for patch clamp experiments and DIV14 for excitotoxicity tests).
Excitotoxicity tests were performed 14 days after the culturing step as described in ref[15]. Just before the experiments, the neuronal medium was changed and the neurons incubated in the external patch recording solution (see above). Two replicates of 24 well plates containing cultured cortical neurons were exposed to the same 4 conditions, in which the following compounds were added to the medium: (1) glycine (10 μM) alone (control); (2) glycine (10 μM) + NMDA (100 μM); (3) glycine (10 μM) + NMDA (100 μM) + 5 μM ifenprodil; and (4) glycine (10 μM) + NMDA (100 μM) + 5 μM trans-OptoNAM-3 (dark). One of the two plates was exposed to UV light (Jena analytic US, UVP Hand-held UV lamp UVGL-58, power ∼1 mW) for 2 min. The two plates were then put back in the 37 °C incubator for 10 min. Agonist exposure was terminated by washing out the exposure solution with conditioned Neurobasal medium, prior to returning the dishes to the incubator for 24 h before assessment of neuronal death.
Overall neuronal cell death was determined 24 h after NMDA exposure by the MTT test. Mitochondrial and cytosolic dehydrogenases of living cells reduce the yellow tetrazolium salt (MTT) to produce a purple formazan dye that can be detected spectrophotometrically.[85] […]

“Also recorded” adds a separate entry of the source. Where two headings read alike, the source gives them in different places.

T1 sequence (Q01097 27-1482, other chains not shown): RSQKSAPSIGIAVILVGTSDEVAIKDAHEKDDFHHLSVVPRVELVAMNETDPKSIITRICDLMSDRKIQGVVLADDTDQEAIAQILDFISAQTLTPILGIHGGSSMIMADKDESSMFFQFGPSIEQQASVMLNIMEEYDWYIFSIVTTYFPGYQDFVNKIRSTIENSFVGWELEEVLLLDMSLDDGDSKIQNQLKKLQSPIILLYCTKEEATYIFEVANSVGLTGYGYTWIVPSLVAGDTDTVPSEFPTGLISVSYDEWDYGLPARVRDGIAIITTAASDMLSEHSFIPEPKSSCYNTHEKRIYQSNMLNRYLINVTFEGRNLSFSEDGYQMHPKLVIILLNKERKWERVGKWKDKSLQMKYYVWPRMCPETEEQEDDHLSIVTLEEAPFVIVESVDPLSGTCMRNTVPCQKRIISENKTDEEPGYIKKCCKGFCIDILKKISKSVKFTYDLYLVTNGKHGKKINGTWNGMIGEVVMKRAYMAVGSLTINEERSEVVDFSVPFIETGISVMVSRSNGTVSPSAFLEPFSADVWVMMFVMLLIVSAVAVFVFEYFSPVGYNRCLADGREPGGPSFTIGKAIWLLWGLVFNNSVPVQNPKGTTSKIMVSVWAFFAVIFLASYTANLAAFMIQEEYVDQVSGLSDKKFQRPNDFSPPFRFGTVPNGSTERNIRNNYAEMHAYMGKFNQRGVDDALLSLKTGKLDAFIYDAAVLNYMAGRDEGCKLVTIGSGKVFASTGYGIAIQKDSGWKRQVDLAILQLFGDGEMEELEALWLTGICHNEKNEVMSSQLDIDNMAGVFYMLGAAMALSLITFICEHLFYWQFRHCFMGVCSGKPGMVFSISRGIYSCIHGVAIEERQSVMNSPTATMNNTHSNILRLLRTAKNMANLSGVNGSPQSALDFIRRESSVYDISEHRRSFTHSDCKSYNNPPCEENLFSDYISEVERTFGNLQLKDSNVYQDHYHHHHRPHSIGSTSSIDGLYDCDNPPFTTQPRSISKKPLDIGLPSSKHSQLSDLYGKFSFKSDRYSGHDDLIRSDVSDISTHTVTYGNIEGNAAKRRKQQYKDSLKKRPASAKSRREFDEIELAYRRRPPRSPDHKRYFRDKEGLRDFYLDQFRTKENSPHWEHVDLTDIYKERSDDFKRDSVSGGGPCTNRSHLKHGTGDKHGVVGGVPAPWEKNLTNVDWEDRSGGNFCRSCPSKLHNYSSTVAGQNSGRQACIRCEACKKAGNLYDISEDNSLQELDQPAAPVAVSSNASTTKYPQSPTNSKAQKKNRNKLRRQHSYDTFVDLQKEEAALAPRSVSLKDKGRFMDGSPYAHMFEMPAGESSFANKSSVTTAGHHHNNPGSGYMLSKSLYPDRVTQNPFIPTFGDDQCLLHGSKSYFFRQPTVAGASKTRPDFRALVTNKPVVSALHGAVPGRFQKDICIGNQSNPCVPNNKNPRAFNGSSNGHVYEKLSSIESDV

For `Nc1ccnc(N2CCc3ccccc3C2)c1` [9n = Compound 1], the Ki or IC50 in assay [1] (ref: ref. 39) is 3 nM.

Take `c1ccc(/N=N\c2ccc(CCNc3ccncc3)cc2)cc1` [cis-OptoNAM-3]: the “activity of the cis isomer on GluN1/GluN2B NMDARs” value in assay [2] is “inactive”.

With `CC(C(O)c1ccc(O)cc1)N1CCC(Cc2ccccc2)CC1` (stereo not drawn) [ifenprodil], the neuronal survival result is reported as “not affected; also recorded: No photodependent effect” in assay [3] (2 min UV (365 nm), normalized to control and NMDA); 60% in assay [3] (dark, normalized to control (100%) and NMDA (0%)). The “% of survival, Mean” value in assay [3] (Dark) was 59.345%; in assay [3] (UV) it was 59.393%.

In general, Ki refers to a dissociation constant, usually derived from enzyme kinetics or from competition with a known ligand. Take `Nc1ccnc(N2CCc3ccccc3C2)c1` [parent compound 1]: the Ki in assay [1] (ref 3 (SI), read-out: Parent compound Ki) was 3 nM.

Broadly, the IC50 is the concentration that gives 50% inhibition. Regarding `Cc1cc(N)nc(/C=C/c2ccccc2)c1` [parent compound 2], the Ki or IC50 in assay [1] (ref: ref. 40) is 10 nM. Besides, in assay [1] (ref 2,6 (SI), read-out: Parent compound IC50), the IC50 was 10 nM.
